Measured values published in article PMC11312998, “Molecular Pro-Apoptotic Activities of Flavanone Derivatives in Cyclodextrin Complexes: New Implications for Anticancer Therapy” (International Journal of Molecular Sciences, 2024).

Key:
[1] = MTT cytotoxicity assay, model of normal cells; type: cell-based; details: human, HMEC-1 cells (model of normal cells), 24 h incubation, mean ± SEM, read-out: Cytotoxic effect, IC50
Method: (§1) Cell viability was determined using the metabolic microplate spectrophotometric assay with Methylthiazolyl diphenyltetrazolium bromide (MTT), i.e., 3-(4,5-Dimethyl-2-thiazolyl)-2,5-diphenyl-2H-tetrazolium bromide (Sigma-Aldrich; St. Louis, MO, USA). The anticancer activity of the investigated compounds was evaluated in vitro on the basis of their ability to inhibit the proliferation of various cancer cells. The appropriate number of cells for a given cell line (6–8 × 10^3 cells/mL) were seeded into sterile, colorless 96-well microplates. After 24 h of culture, specific wells of the microplate were treated with test compounds (10–200 µmol/L concentration) and incubated in a CO2 incubator for 24 h. The medium was then removed, the cell monolayer was washed twice with sterile PBS solution and fresh culture medium was added to the wells of the microplate.
(§2) After 48 h of cell culture, the MTT test was conducted. In each well of the microplate, 50 µL of tetrazolium salt solution (final concentration 0.05 mg/mL) was added. The microplate was then placed in a CO2 incubator for 3–4 h (depending on the cell line). Following incubation, 100 µL of DMSO (dimethyl sulfoxide, Sigma-Aldrich, St. Louis, MO, USA) was added to the microplate wells to dissolve the purple formazan crystals formed in the environment of living cells. The absorbance of the formazan solution was read at a wavelength of λ = 580 nm and a reference wavelength of λ = 720 nm after gentle mixing (Biotek Power Wave HT, Biotek Instruments, Winooski, VT, USA).
The percentage of live cells was calculated by comparing the absorbance value of the tested samples with that of the control (cells not treated with compounds). Control absorbance was arbitrarily considered to be 100%.

[2] = tested on: breast cancer cells (MCF-7, MDA-MB-231 and HCC38) and endometrial cancer cells (Ishikawa, Hec-1-A); assay: MTT cytotoxicity assay, summary over the cell lines; type: cell-based, human; details: Homo sapiens; range over the five cancer lines; read-out: IC50, range depending on the cancer line
Method: as §1, §2
The percentage of live cells was calculated by comparing the absorbance value of the tested samples with that of the control (cells not treated with compounds). Control absorbance was arbitrarily considered to be 100%. […] Moreover, cisplatin (Sigma-Aldrich, St. Louis, MO, USA) was used as a reference compound, and identical incubation conditions were used as described above.

Ishikawa = assay: Mitochondrial potential (ΔΨm), JC-1 method; type: cell-based, human; details: IC50 concentration, 24 h
Description: 5,5,6,6-Tetrachloro-1,1,3,3-tetraethylbenzimidazolylcarbocyanine iodide (JC-1) is a cationic carbocyanine dye commonly used as a fluorescent probe to detect mitochondrial membrane depolarization. In living cells with an intact mitochondrial membrane, the lipophilic JC-1 penetrates the negatively charged mitochondrial matrix as a monomer. It then forms fluorescent aggregates with red-orange fluorescence (λex = 514 nm, λem = 590 nm). During depolarization of the mitochondrial membrane or in apoptotic cells, the concentration of JC-1 decreases, and the aggregates disintegrate into monomers emitting green fluorescence (λex = 514 nm, λem = 529 nm). The fluorescence ratio of aggregates (λem = 590 nm) and monomers (λem = 529 nm)—590 nm/529 nm—reflects the level of damage to the mitochondrial membrane.
The cells were seeded in black 96-well fluorometric microplates at a density of 10 × 10^3 cells per well. […] After incubation with the compounds, the medium was removed, the cell monolayer in the wells was washed twice with HBSS (140 mM NaCl, 5 mM KCl, 0.8 mM MgCl2, 1.8 mM CaCl2, 1 mM Na2HPO4, 10 mM HEPES and 1% glucose) and 50 μL of JC-1 solution in HBSS was added to each well (final probe concentration 5 μmol/L). Cells were incubated with the probe for 30 min in the dark in an incubator (37 °C). After incubation, the probe was removed and replaced with fresh HBSS buffer. Fluorescence measurements (Perkin-Elmer LS-5B spectrofluorometer, MA, USA) of JC-1 monomers and aggregates were made at the following excitation and emission wavelengths: λex = 514 nm, λem = 529 nm (monomers), λex = 514 nm, λem = 590 nm (aggregates). The results of the tested samples are presented as the percentage fluorescence ratio of JC-1 aggregates and JC-1 monomers relative to the fluorescence ratio of JC-1 aggregates and JC-1 monomers of the control, which was assumed to be 100%.
A positive control was formed of cells pre-incubated with 5 µmol/L carbonyl cyanide m-chlorophenylhydrazone (CCCP), a chemical inhibitor of oxidative phosphorylation that acts by uncoupling the protons flowing along the electrochemical gradient from phosphorylation.

MDA-MB-231 = assay: Nitric oxide (RNS) generation, DAF-FM diacetate probe; type: cell-based, human; details: IC50 concentration, 24 h
Method: Diaminofluorescein-FM diacetate (DAF-FM diacetate, Invitrogen, Carlsbad, CA, USA), is a widely employed cell permeant fluorescent reagent for the detection and quantification of reactive nitrogen species (RNS), particularly nitric oxide (NO). […] However, upon reaction with NO, it undergoes a transformation that yields a highly fluorescent benzotriazole derivative (excitation/emission maxima: λex = 495, λem = 515 nm).
The cells were seeded in black 96-well fluorometric microplates at a density of 10 × 10^3 cells per well. […] After incubation with the compounds, the medium was removed, the cell monolayer in the wells was washed twice with HBSS (140 mM NaCl, 5 mM KCl, 0.8 mM MgCl2, 1.8 mM CaCl2, 1 mM Na2HPO4, 10 mM HEPES and 1% glucose) and 50 μL of DAF-FM diacetate solution in HBSS was added to each well (final probe concentration 5 μmol/L). Cells were incubated with the probe for 30 min in the dark in an incubator (37 °C). After incubation, the probe was removed and replaced with fresh HBSS buffer and then incubated for an additional 30 min to allow for complete de-esterification of the intra cellular diacetates. After this time, the fluorescence was measured. The measurement was performed at the following excitation and fluorescence emission wavelengths: λex = 495 nm/λem = 515 nm. Fluorescence was measured on a Perkin-Elmer LS-5B spectrofluorometer (MA, USA). Fluorescence intensity values for control cells were arbitrarily set as 100%. The results are presented as percentages of control cells calculated on the basis of a comparison of the fluorescence intensity ratio of test samples and controls (100%) (fluorescence of samples was calculated as Δf in relation to the control).

colon cancer lines = assay: GSH concentration in cancer cells (other studies, not yet published); type: cell-based; details: results not yet published

SMILES	IC50 at 24 h [1] [µM]	IC50 [2] [µM]	hyperpolarization of mitochondrial membranes relative to controls (Ishikawa)	increase in nitric oxide level (DAF-FM) (MDA-MB-231)	GSH concentration in cancer cells (in words) (colon cancer lines)	decrease in ΔΨm (Ishikawa)
O=C1/C(=C/c2ccccc2)C(c2ccccc2)Oc2ccccc21 (stereo not drawn) [Compound 5]	19.7 ± 3.7	18 to 36	approximately 30%	approximately 15%	decrease in GSH concentration	
COc1cccc(/C=C2/C(=O)c3ccccc3OC2c2ccccc2)c1 (stereo not drawn) [Compound 3]	24.1 ± 1.3	15 to 27		approximately 15%	decrease in GSH concentration	about 15%
O=C1/C(=C/c2ccccc2)COc2ccccc21 [Compound 1]	21.2 ± 3.1	10 to 18		approximately 20%	decrease in GSH concentration	approximately 30%
